According to patent publication US20130231305A1, “Method of Modulating Protein 14-3-3 Functionality By Facilitating or Inhibiting Phosphorylation” (Medvet Science Pty. Ltd., priority 2010, published 2013):

Columns and labels:
14-3-3ζ [1] = molecular target: T1, 14-3-3ζ (Homo sapiens, UniProt P63104); assay: 14-3-3 phosphorylation by PKA catalytic subunit (autoradiography); format: biochemical; conditions: TMA compounds at 125 μM or 62.5 μM in 0.1% ethanol; P81 scintillation counting or autoradiography
T1 construct: made in house
T1 sequence (P63104 1-245): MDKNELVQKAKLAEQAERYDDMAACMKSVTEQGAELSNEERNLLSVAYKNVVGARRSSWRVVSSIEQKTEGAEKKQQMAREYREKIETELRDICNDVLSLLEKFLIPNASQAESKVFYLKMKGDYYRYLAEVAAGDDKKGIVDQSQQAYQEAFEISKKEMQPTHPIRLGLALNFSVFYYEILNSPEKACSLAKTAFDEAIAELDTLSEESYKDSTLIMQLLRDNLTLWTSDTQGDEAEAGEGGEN

Jurkat cells = assay: Jurkat cell apoptosis (TMRE staining, NucView caspase activity); format: cell-based; conditions: TMAs, 16 hours incubation
Description: (A) Immunoblotting of lysates from either parental Jurkat cells (Jurkat) or cells transduced with lentivirus encoding either wild type (Wt) or S58A 14-3-3ζ-Myc with either an anti-14-3-3ζ specific antibody (upper panel) or an anti-pan 14-3-3 antibody (middle panel) to compare the expression level of transduced protein. Myc immunoprecipitates were also immunoblotted with an anti-phospho 14-3-3 binding site antibody (lower panel) to detect proteins associated with 14-3-3ζ-Myc. Endogenous 14-3-3 is indicated by an open arrow and exogenous 14-3-3ζ-Myc with a closed arrow. (B) Lysates from either wild type (Wt) or S58A 14-3-3ζ-Myc expressing Jutkat cells were subjected to in vitro PKA phosphorylation in the presence (+) or absence (−) of […] and the samples immunoblotted after SDS-PAGE separation With either anti-Myc antibody (upper panel), anti-14-3-3ζ antibody (middle panel) or anti-phospho Ser58 14-3-3ζ antibody (lower panel). (C) Serum-starved Jurkat cells were treated with 2 μM FTY720 for 4 h prior to staining with TMRE and NucView™. Forward- versus side-scatter plots (FS versus SS) show the viable cell populations for FTY720 and EtOH (vehicle) treated cells which are analysed in the lower histograms for caspase activity (NucView™) versus ΔΨM (TMRE). (D and E) Jurkat cell lines expressing either wild type or S58A 14-3-3ζ-Myc by lentiviral transduction were serum-starved for 2 h and treated with either 0.1% ethanol vehicle alone (EtOH), 2 μM dimethyl-sphingosine (DMS), or 2 μM FTY720. Cells were analysed by TMRE staining at 4 h (D) or at the time points indicated (E). (D) Representative analyses of TMRE staining with forward- versus side-scatter plots inset to show the similarity in cell populations. (E) Graphical representation of TMRE analysis over time with open symbols representing vehicle (0.1% EtOH) treated cells and closed symbols representing FTY720 treated cells. […]
FIG. 11. […] Effect of TMAs on Jurkat cells after 16 hours incubation assessed by ΔΨM (TMRE) and caspase 3 activity (NucView™) analysis. […] Forward-side-scatter histograms showing cell viability are inset and caspase 3 activity as assessed by NucView™ analysis of viable cells shown. E. Examples of TMA-derivatives of FTY720 that will be analysed for effects on 14-3-3 dimer stability and apoptosis.
Having confirmed appropriate expression and behaviour of Myc-tagged wild type and S58A 14-3-3ζ in the Jurkat lines, these cells were utilised in functional studies to determine the effect of S58A 14-3-3ζ expression on cell survival in response to sphingosine analogues. […] Intriguingly, Jurkat cells expressing S58A 14-3-3ζ-Myc consistently underwent commitment to apoptosis (as detected by the loss of TMRE staining) more slowly than those expressing wild type 14-3-3ζ-Myc (FIG. 8D).

PKCδCat-HA = molecular target: T2, PKCδCat-HA (Homo sapiens, UniProt Q05655); assay: PKC kinase activity assay with Ser25 peptide substrate; format: biochemical; conditions: 10 μM GF109203X
T2 construct: recreated exactly the N-terminus of the caspase-3 cleaved protein; additional initiator methionine (N); expressed in transfected cells; host or cells: COS cells, anti-HA immunoprecipitate
T2 sequence (Q05655 330-676 limits assumed): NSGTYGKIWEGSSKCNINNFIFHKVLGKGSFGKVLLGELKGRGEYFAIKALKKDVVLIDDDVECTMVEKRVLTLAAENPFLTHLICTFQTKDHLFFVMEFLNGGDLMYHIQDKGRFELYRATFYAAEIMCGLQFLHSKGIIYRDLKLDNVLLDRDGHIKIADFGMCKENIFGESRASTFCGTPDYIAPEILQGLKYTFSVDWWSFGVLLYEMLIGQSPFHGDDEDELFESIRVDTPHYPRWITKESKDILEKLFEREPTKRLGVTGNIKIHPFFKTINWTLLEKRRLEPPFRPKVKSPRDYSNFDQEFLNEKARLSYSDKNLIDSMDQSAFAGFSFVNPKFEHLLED
Experimental: FIG. 5 is an image depicting that DMS is required for phosphorylation of 14-3-3ζ by PKCδCat but not for activation of the kinase. COS cells were transfected with either an empty expression construct (Mock) or one encoding a HA-tagged truncated form of PKCδ corresponding to the caspase-3 cleaved protein (PKCδCat-HA). 20 hours after transfection the cells were lysed and PKCδCat-HA was immunoprecipitated using an anti-HA antibody. (A) PKC assays were carried out on the immunoprecipitates from mock (open bars) and PKCδCat-HA (shaded bars) expressing cells using Ser25 peptide as substrate with [^32P]γ-ATP in the presence or absence of 100 μM DMS (delivered in 0.1% ethanol) or 10 μM of GF109203X (GFX), the PKC inhibitor. The values represent means±S.E. of triplicate determinations. (B) PKCδCat-HA immunoprecipitates were incubated with recombinant 14-3-3ζ and [^32P]γ-ATP in the presence or absence of DMS or GF109203X (GFX). Phosphorylated 14-3-3 was detected by autoradiography after separation of SDS-PAGE (upper panel). The gel was also coomassie stained to show equal loading of 14-3-3 protein (lower panel). […]
Equal amounts of PKCδCat-HA immunoprecipitate were used to assay for PKC kinase activity, or to phosphorylate recombinant 14-3-3. […] Following incubation, reactions were separated on 12.5% SDS-PAGE, coomassie stained and 14-3-3 phosphorylation analysed by autoradiography.

14-3-3ζ [2] = molecular target: T1, 14-3-3ζ; assay: 14-3-3 phosphorylation by PKA catalytic subunit (autoradiography); format: biochemical; conditions: 50 μM lipid delivered in 0.1% ethanol
Experimental: 14-3-3ζ (wild-type or S58A mutant) was incubated with the catalytic subunit of PKA in the presence (+) or absence (−) of 50 μM sphingosine (A) or DMS (B) delivered in 0.1% ethanol. Phosphorylated 14-3-3ζ was detected by autoradiography.
The assay was carried out by incubating 14-3-g (0.5 μg) with catalytic subunit of PKA (0.2 Units) with the indicated concentration of DMS delivered in 0.1% ethanol. Reactions were separated on SDS-PAGE and phosphorylated protein detected by autoradiography. […] (B) 14-3-3ζ was incubated with the catalytic subunit of PKA and 50 μM D-erythro-sphingosine (Sph), D-erythro-trimethyl-sphingosine (TMS), D-erythro-dihydro-sphingosine (DHS), phyto-sphingosine (PSph), D-erythro-sphingosine-1-phosphate (SIP), C2-ceramide (C2-Cer), sphingomyelin (SM), spermine (Sper) or linoleic acid (LA), all delivered in 0.1% ethanol. Phosphorylated 14-3-3ζ was detected by autoradiography.
Substrate 14-3-3 (either 0.5 μg of purified recombinant 14-3-3, a […] of fractions from gel filtration or immunoprecipitates from 14-3-3ζ-Myc transfected COS cells) were added to reaction mixture comprising 0.2 Units of the PKA catalytic subunit, in the presences or absence of sphingolipid (delivered in 0.1% v/v ethanol) in PICA reaction buffer (20 mM MOPS, pH 7.4, 20 mM β-glycerol phosphate, 4 mM EGTA, 1 mM Na3VO4, 60 mM MgCl2, 1 mM DTT, 500 μM ATP, 2.4 μCi [^32P]γ-ATP). Reactions were incubated at 37° C. for 15 minutes. After incubation, reactions were separated on 12.5% SDS-PAGE, coomassie stained and 14-3-3 phosphorylation analysed by autoradiography.

Row | SMILES | phosphorylation of 14-3-3ζ on Ser58 by PKA catalytic subunit (14-3-3ζ [2]) | further results
1 | CCCCCCCCCCCCCC[N+](C)(C)C [C14] |  | 14-3-3 phosphorylation by PKA catalytic subunit (14-3-3ζ [1]): capable of facilitating 14-3-3 phosphorylation
2 | CCCCCCCCCCCCCCCC[N+](C)(C)C.[Br-] [C16, hexadecyl-trimethyl ammonium] |  | 14-3-3 phosphorylation by PKA catalytic subunit (14-3-3ζ [1]): capable of facilitating 14-3-3 phosphorylation
3 | CCCCCCCCCCCCCCCC[N+](C)(C)C.[Br-] [CTAB] |  | apoptosis of Jurkat cells (ΔΨM by TMRE, caspase 3 by NucView) (Jurkat cells): apoptosis induced by CTAB
4 | CN(C)CCCn1cc(C2=C(c3c[nH]c4ccccc34)C(=O)NC2=O)c2ccccc21 [GF109203X] |  | effect on PKCδCat kinase activity (PKCδCat-HA): completely inhibited
5 | CCCCCCCCCCCCC/C=C/[C@@H](O)[C@H](CO)NC(C)=O [ceramide, C2-ceramide] | did not support the phosphorylation | 
6 | CCCCCCCCCCCCCCC[C@@H](O)[C@@H](N)CO [dihydro-sphingosine, D-erythro-dihydro-sphingosine] | allowed phosphorylation | 
7 | CCCCC/C=C\C/C=C\CCCCCCCC(=O)O [linoleic acid] | did not support the phosphorylation | 
8 | CCCCCCCCCCCCCC[C@@H](O)[C@@H](O)[C@@H](N)CO [phyto-sphingosine] | allowed phosphorylation | 
9 | NCCCNCCCCNCCCN [spermide, spermine] | did not support the phosphorylation | 
10 | CCCCCCCCCCCCC/C=C/[C@@H](O)[C@H](COP(=O)([O-])OCC[N+](C)(C)C)NC(=O)CCCCCCCCCCCCCCCCC [sphingomyelin] | did not support the phosphorylation | 
11 | CCCCCCCCCCCCC/C=C/[C@@H](O)[C@@H](N)COP(=O)(O)O [sphingosine-1-phosphate, D-erythro-sphingosine-1-phosphate] | did not support the phosphorylation | 
12 | CCCCCCCCCCCCC/C=C/[C@@H](O)[C@H](CO)[N+](C)(C)C [trimethyl-sphingosine, D-erythro-trimethyl-sphingosine] | allowed phosphorylation | 
